The structures appear in SMILES notation.

One test deals with T1, SET7/9 (Homo sapiens, UniProt Q8WTS6).
T1 construct: 2-366; purchased RBC (read as Reaction Biology Corporation, named)
In words: Histone methyltransferase enzymatic assay, SET7/9. Conditions: enzyme conc. 100 nM. The format is biochemical. The protocol: Histone methyltransferase assays were performed in 96-well half-area optiplates (PerkinElmer) at room temperature. All concentrations are final unless noted otherwise. Compounds were serially diluted in DMSO and the final DMSO concentration was 1%. A 24 μL reaction mixture contained compound, enzyme, 200 nM of nucleosome or histone substrate, 400 nM ^3H-SAM (83.1 Ci/mmol), 50 mM Tris-HCl (pH 8.0), 50 mM NaCl, 5 mM MgCl2, 1 mM DTT, and 0.01% Tween-20. The plate was sealed, mixed on a Titramax plate shaker at 1200 rpm for 30 sec, and incubated at room temperature for 60 min. The reaction was quenched by addition of 24 μL mixture containing 5 mg/mL PVT-PEI beads and 300 μM unlabeled SAM in water. The plate was sealed, mixed as previously noted, incubated overnight, and read on a TopCount plate reader (PerkinElmer).
(§1) Data was analyzed using GraphPad Prism 6.0 (La Jolla, CA). […] IC50 values were calculated as an average of at least two independent experiments.

For a further test, the target named is KDM5C (Homo sapiens, UniProt P41229). As to the kind of experiment: KDM5C enzymatic assay (AlphaLISA). The class given is biochemical. The protocol:
The following assay protocol was used for all histone demethylases tested except KDM1A, KDM5A, B, and D, which are described below. Compounds were serially diluted into a 384-well Alpha plate as a DMSO solution and mixed with 5 μL reaction buffer (buffer A) containing 50 mM HEPES (pH 7.0), 0.1% BSA, and 0.003% Tween-20. The enzyme of interest was pre-incubated with 15 μM of Fe^2+ for 10 min (except 30 min for KDM2B) in reaction buffer A. 5 μL of the enzyme mixture was added to each of the compound-containing wells and incubated for 10 min. The reaction was started by addition of a 5 μL mixture containing 300 nM peptide substrate, 75 μM L-ascorbic acid, and 30 μM α-ketoglutarate in buffer A. This final 15 μL of reaction mixture was incubated for 20 min for KDM5B and 1 hour for the other KDM enzymes. The reaction was quenched with 10 μL of diluted AlphaLISA Acceptor beads (1:400) in Epigenetics Buffer and incubated for 60 min. The Donor beads were diluted 1:400 into Epigenetics Buffer in the dark and 10 μL of this was added to each well and incubated for another 60 min in the dark. The assay plates were read on an Enspire plate reader (PerkinElmer) using a standard AlphaLISA program.
as §1
(Alpha assays give light when donor and acceptor beads are brought close together.)

The target in the next test is KDM1A (Homo sapiens, UniProt O60341). As to the kind of experiment: KDM1A enzymatic assay (AlphaLISA, NAD). The format is biochemical. How it is done: The KDM1 assay was conducted in the presence of NAD but without Fe(II) or ascorbic acid. A 10 μL reaction mixture containing 50 mM Tris-HCl (pH 9.0), 50 mM NaCl, 0.01% Tween-20, 0.25 nM of enzyme, and 1 mM NAD was pre-incubated for 10 min. The reaction was started by addition of 5 μL of H3(1–21)K4 me1, and the reaction mixture was incubated for 60 min. The reaction was quenched with 10 μL AlphaLISA Acceptor beads (1:200) in Epigenetics Buffer and the reaction mixture was incubated for 60 min. The Donor beads were diluted 1:200 into Epigenetics Buffer in the dark, and 10 μL of this mixture was added to each well and incubated for another 60 min in the dark. The assay plates were read on an Enspire plate reader (PerkinElmer) using a standard AlphaLISA program.
as §1

The next test has as its target T2, SIRT-1 (Homo sapiens, UniProt Q96EB6).
T2 construct: 193-741; purchased BPS
As to the kind of experiment: SIRT-1 histone deacetylase assay (AlphaLISA). The format is biochemical. Conditions: enzyme conc. 5 nM. The protocol:
The assay plates were read on an Enspire plate reader (PerkinElmer) using a standard AlphaLISA program.
as §1

For a further test, the system named is H3K4 methylation. In words: Histone mass spectrometry of H3K4 methylation in PHH. The format is cell-based, human. Conditions: uninfected PHH; 10 μM every 3 days; Day 7. How it is done: Approximately 25 million PHH from Donor (Bioreclamation) were plated on collagen coated (Coating Matrix kit, Life Technologies, Cat. #R-011-K) plates (coated for 30 minutes at 37°C and subsequently washed twice with PHH plating medium). The PHH plating medium was removed after 16 hours and replaced with PHH maintenance medium (Day 0). […] Modifications to the manufacturer’s protocol included two PBS washes prior to adding the histone extraction buffer to the cells, precipitation of eluted histones in 8% perchloric acid, and a single wash in cold acetone containing 0.2% HCl.
Fresh 1:100 propionic anhydride:water reagent was prepared and 1 μl of mixture was added immediately to the histone sample with vortexing and incubated for 5 minutes at 25°C. The reaction was quenched with 1 μl of 80 mM hydroxylamine for 20 minutes at 25°C. […]
1 μl of sample was injected using a Thermo Fischer Scientific Ultimate 3000 Autosampler (San Jose, CA) onto a 15 cm x 75 μm Thermo Fischer Scientific ES812 Easyspray nano column with 5 μm particle size. […] Each sample was analyzed three times.
Data was searched using Thermo Fischer Scientific Proteome Discoverer V2.1 software. […] The ratio of drug treated/control was calculated for each sample and then corrected using the average protein level ratio to account for differences in total protein between control and treated samples.

Chain of KDM5C (P41229 whole entry): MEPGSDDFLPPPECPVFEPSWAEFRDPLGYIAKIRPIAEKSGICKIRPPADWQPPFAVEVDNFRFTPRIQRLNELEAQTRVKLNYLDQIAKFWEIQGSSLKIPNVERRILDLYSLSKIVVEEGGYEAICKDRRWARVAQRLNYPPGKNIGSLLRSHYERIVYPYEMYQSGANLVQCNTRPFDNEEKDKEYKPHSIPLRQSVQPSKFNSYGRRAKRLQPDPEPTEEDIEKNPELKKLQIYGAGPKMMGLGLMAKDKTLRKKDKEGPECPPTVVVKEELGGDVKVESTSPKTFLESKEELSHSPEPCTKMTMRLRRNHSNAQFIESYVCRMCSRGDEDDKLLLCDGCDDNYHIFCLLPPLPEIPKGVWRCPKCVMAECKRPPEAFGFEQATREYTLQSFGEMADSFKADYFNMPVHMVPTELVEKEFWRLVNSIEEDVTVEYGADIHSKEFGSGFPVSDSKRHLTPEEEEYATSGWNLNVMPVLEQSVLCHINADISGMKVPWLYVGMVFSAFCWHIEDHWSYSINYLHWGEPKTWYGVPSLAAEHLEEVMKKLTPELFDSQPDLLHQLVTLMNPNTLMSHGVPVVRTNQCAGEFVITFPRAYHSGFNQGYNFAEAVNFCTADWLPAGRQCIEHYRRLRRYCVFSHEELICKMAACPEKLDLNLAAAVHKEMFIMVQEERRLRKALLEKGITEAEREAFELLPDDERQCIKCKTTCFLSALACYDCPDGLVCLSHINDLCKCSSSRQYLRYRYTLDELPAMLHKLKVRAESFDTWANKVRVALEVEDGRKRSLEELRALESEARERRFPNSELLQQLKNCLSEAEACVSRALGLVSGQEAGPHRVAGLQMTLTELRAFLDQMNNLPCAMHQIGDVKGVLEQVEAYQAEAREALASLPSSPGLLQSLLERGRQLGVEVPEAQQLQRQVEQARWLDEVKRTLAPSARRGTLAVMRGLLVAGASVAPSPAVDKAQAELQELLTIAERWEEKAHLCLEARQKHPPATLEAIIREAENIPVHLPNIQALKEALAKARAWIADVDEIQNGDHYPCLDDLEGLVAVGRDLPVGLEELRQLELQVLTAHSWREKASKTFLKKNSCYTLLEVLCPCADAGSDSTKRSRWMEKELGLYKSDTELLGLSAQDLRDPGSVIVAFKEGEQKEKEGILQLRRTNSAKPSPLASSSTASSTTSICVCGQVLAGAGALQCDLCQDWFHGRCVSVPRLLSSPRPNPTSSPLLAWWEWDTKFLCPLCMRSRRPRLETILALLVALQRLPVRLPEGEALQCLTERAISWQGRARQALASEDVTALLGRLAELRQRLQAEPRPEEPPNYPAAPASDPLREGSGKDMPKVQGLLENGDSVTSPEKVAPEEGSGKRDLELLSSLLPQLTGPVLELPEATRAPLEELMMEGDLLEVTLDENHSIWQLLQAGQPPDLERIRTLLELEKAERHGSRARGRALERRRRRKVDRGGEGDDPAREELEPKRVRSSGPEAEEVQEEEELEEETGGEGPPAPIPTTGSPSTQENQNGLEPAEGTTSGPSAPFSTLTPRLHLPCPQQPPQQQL
T1 sequence (Q8WTS6 2-366): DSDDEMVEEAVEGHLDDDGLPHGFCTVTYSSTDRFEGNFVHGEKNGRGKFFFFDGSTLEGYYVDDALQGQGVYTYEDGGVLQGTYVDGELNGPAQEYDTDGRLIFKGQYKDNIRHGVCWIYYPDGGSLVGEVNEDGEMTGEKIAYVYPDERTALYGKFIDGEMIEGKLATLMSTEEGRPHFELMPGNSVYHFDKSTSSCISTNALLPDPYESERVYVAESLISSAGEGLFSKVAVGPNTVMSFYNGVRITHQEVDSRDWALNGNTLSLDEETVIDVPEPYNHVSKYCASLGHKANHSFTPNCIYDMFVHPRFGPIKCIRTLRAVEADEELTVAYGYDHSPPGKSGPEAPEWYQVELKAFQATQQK
T2 sequence (Q96EB6 193-741): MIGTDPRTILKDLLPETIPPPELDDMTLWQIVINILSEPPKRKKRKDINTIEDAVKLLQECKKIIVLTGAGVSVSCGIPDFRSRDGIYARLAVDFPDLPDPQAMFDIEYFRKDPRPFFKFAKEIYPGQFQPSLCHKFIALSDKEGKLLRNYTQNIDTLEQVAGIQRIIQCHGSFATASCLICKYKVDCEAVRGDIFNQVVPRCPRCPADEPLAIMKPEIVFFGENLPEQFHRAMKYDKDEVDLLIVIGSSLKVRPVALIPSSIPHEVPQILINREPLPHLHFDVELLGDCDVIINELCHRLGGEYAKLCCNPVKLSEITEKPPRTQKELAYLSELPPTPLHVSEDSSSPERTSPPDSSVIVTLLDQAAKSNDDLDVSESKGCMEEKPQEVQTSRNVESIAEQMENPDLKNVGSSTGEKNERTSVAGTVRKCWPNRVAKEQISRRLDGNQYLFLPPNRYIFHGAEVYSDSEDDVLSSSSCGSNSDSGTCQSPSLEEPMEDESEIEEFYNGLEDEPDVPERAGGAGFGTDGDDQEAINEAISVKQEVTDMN

The term IC50 denotes the midpoint of a concentration-inhibition curve. Lower therefore signals greater potency in that assay. `CCN(CCN(C)C)C(=O)CNCc1cc(C(=O)O)ccn1` [GS-080]: the IC50 at SET7/9 was > 100 µM; against KDM5C (enzyme concentration 1 nM), 0.0037 µM; against KDM1A (enzyme concentration 0.25 nM), > 100 µM; at SIRT-1 it was > 100 µM. The “Fold Selectivity Compared to KDM5A” value on KDM5C (IC50 of KDM5C over KDM5A) is on record as 10 fold; at KDM1A (IC50 of KDM1A over KDM5A), > 278,000 fold.

Turning to `CCOC(=O)c1ccnc(CNCC(=O)N(CC)CCN(C)C)c1` [GS-5801], the “change in H3K4 methylation species by quantitative mass spectrometry” value in the test on H3K4 methylation is on record as “predominantly caused an increase in trimethylated H3K4 (H3K4me3)”.

The values are drawn from article PMC9728921, “Characterization of a KDM5 small molecule inhibitor with antiviral activity against hepatitis B virus” (PLOS ONE, 2022).
